Experimental findings from article PMC4563141, “Reverse Engineering of Vaccine Antigens Using High Throughput Sequencing-enhanced mRNA Display” (EBioMedicine, 2015) are described below.

Peptide text beside a SMILES is read from it.

Assay [1] deals with mAb41. Put plainly: Competitive ELISA for binding of mAb41 to immobilized peptide B. Details: species or system mice. The note with it: 1 μg biotinylated pB immobilized, 12 ng mAb41, competitor peptide 0 to 0.8 μg. As to the method:
Streptavidin coated 96-well ELISA plates were coated with 1 μg/well biotinylated peptide B as previously described ([Major et al., 1999]). Equal amounts of mAb (12 ng in 100 μl PBS containing 5% milk) were added to each well with increasing amounts of competitor peptide (from 0 to 0.8 μg). After 1 hr incubation at room temperature and washing, secondary antibody was added. The substrate reaction and absorbance reading were performed as described above.

In assay [2] the test system is mAb41 Fab. Briefly: Affinity measurements by Octet (binding kinetics of mAb41 Fab to biotinylated peptides). Details: species or system mice. The note with it: Octet RED, 1:1 model fit. As to the method:
Binding kinetics of mAb41 Fab to selected peptides were measured using a Fortebio Octet Red 96 instrument (Menlo Park, CA). All assays were performed in 1 × kinetic buffer (Fortebio). Biotinylated peptides were loaded onto streptavidin biosensors (Fortebio) for 100 s and quenched with biocytin. A two-fold dilution series of antibody Fab (prepared using a mouse IgG1 kit, Pierce) was used as analyte. Association was performed for 300 s and dissociation for 900 s. Binding constants were obtained by fitting sensorgrams with a 1:1 model using ForteBio Data Analysis Software.
On the technique in general: BLI is a label-free optical method that tracks binding on a fibre tip over time.

One may read the kon as the second-order rate constant of association. A higher kon goes with fast association. Broadly, the Kd is the equilibrium constant for the complex coming apart. The low end stands for tighter binding, the high end for weaker binding. Take `CSCC[C@H](NC(=O)[C@@H](N)CCSC)C(=O)N[C@@H](CCC(=O)O)C(=O)N[C@@H](CS)C(=O)N[C@@H](CCC(=O)O)C(=O)N[C@@H](CCCCN)C(=O)NCC(=O)N[C@@H](CCCCN)C(=O)N[C@@H](Cc1ccc(O)cc1)C(=O)N[C@H](C(=O)N[C@@H](CCC(N)=O)C(=O)NCC(=O)N[C@@H](Cc1c[nH]c2ccccc12)C(=O)N[C@@H](CC(C)C)C(=O)N[C@@H](CS)C(=O)N[C@@H](Cc1c[nH]cn1)C(=O)N[C@@H](CC(C)C)C(=O)N[C@@H](Cc1ccccc1)C(=O)N[C@@H](Cc1c[nH]c2ccccc12)C(=O)N[C@@H](CCC(=O)O)C(=O)N[C@@H](CC(=O)O)C(=O)N[C@@H](CS)C(=O)N[C@@H](CCC(N)=O)C(=O)N[C@@H](CC(=O)O)C(=O)N[C@@H](CCCNC(=N)N)C(=O)NCC(=O)N[C@@H](Cc1c[nH]c2ccccc12)C(=O)N[C@@H](CC(C)C)C(=O)N[C@@H](CCC(=O)O)C(=O)N[C@@H](CCC(N)=O)C(=O)N[C@@H](CC(C)C)C(=O)N[C@@H](CCCNC(=N)N)C(=O)N[C@@H](CC(N)=O)C(=O)N[C@@H](CO)C(=O)N[C@@H](CS)C(=O)N[C@@H](C)C(=O)O)C(C)C` [p41_1] (H-MMECEKGKYVQGWLCHLFWEDCQDRGWLEQLRNSCA-OH; N-terminus and C-terminus assumed): in assay [1], the “competition with wild type pB for binding to mAb41” value was “inhibited binding of mAb41 to immobilized pB”. Also, the “kon” value in assay [2] (association 300 s) was found to be 14400 M⁻¹ s⁻¹. The Kd in assay [2] (biotinylated peptide on streptavidin biosensor, mAb41 Fab 125 nM to 7.8 nM 2-fold series) was determined as 16.7 nM. For the same compound, in assay [2] (dissociation 900 s), the “kdis” value amounted to 0.000241 s⁻¹.
